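Results reflect a 48-hour exposure of cells in 96-well plates to compound at five concentrations. Definition used: TGI = concentration required for complete inhibition of growth.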
How the values were obtained:
Assay in all cases: NCI tumour cell line growth inhibition, 48 h
SNB-78 CNS = test system: SNB-78 CNS
M19-MEL melanoma = test system: M19-MEL melanoma
XF 498 CNS = test system: XF 498 CNS
RXF-631 renal = test system: RXF-631 renal
DMS 273 small cell lung = test system: DMS 273 small cell lung
DMS 114 small cell lung = test system: DMS 114 small cell lung
HOP-18 NSCLC = test system: HOP-18 NSCLC
KM20L2 colon = test system: KM20L2 colon
LXFL 529 NSCLC = test system: LXFL 529 NSCLC

Row | SMILES | TGI (SNB-78 CNS) [µM] | TGI (M19-MEL melanoma) [µM] | TGI (XF 498 CNS) [µM] | TGI (RXF-631 renal) [µM] | TGI (DMS 273 small cell lung) [µM] | TGI (DMS 114 small cell lung) [µM] | TGI (HOP-18 NSCLC) [µM] | TGI (KM20L2 colon) [µM] | TGI (LXFL 529 NSCLC) [µM]
1 | C/C(CC(=O)NC1=CC=C(NC(=O)C/C(C)=N\Nc2ccccc2)CC1)=N/Nc1ccccc1 | > 100 | > 100 | > 100 | > 100 | > 100 | > 100 | > 100 | > 100 | > 100
2 | Brc1ccc2c(c1)C1C(CO2)C(c2ccccc2)=NN1c1ccccc1 (stereo unspecified) | > 100 | > 100 | > 100 |  | > 100 | > 100 | > 100 | > 100 | > 100
3 | N#CC(C(=N/NC(N)=S)/C(=N/NC(N)=S)C(C#N)c1ccc(Cl)cc1)c1ccc(Cl)cc1 (stereo unspecified) | > 100 | > 100 | > 100 |  | > 100 | > 100 | > 100 | > 100 | > 100
4 | COc1ccc(NC(=O)CC(=O)N/N=C/c2ccc(N(CCC#N)S(=O)(=O)c3ccccc3)cc2)cc1 | > 100 | > 100 | > 100 | > 100 |  | > 100 | > 100 | > 100 | > 100
5 | CN(C)CC1(Cc2ccccc2)CCC(Cc2ccccc2)C1=O (stereo unspecified) | 43.4 | 32 | 36.3 |  | 29 | 36.4 | 21.3 | 32.4 | 7.32
6 | CCOC(=O)c1[nH]c(CN(C)Cc2[nH]c(C(=O)OCC)c(C)c2C(=O)OCc2ccccc2)c(C(=O)OCc2ccccc2)c1C | > 100 |  |  | 43.4 | 35 | > 100 | > 100 | 14.1 | > 100
7 | CSc1nc2c(c(O)c(C)c(=O)n2C2OCC(OC(C)=O)C(OC(C)=O)C2OC(C)=O)c(=O)n1C (stereo unspecified) | > 100 | > 100 |  |  |  | > 100 |  | > 100 | > 100
8 | COc1cc(C)c(C)c(OC(=O)c2c(C)c(C)c(OC)c(C)c2OC)c1C | > 100 | 46.6 | 40 | 69.1 | 20.6 | 15.5 | > 100 | 19.6 | > 100
9 | CCC1(N=[N+]=[N-])C(=O)c2ccccc2N(c2ccccc2)C1=O (stereo unspecified) | > 100 | > 100 | > 100 |  | > 100 | > 100 | > 100 | > 100 | > 100
10 | CCCCCCCCCCCCn1[nH]c(C)c(C(=S)SCCCCCCCC)c1=O | > 100 | 67.7 | > 100 | > 100 | > 100 | > 79.4 | > 100 | > 100 | > 100
11 | CCCCNC(=O)CCN(C(=O)O)S(=O)(=O)c1ccc(NC(=O)c2ccccc2)cc1 | > 100 | > 100 | > 100 |  | 86.5 | > 100 | > 100 | > 100 | > 100
12 | Cn1nc2ccc3nccc(N(CCO)CCO)c3c2n1 | > 100 | > 100 | > 100 |  | > 100 |  | > 100 | > 100 | > 100
13 | COC(=O)NC(=O)c1cn(CCCOC(=O)CCCCCCCCC(=O)OCCCn2cc(C(=O)NC(=O)OC)c(=O)[nH]c2=O)c(=O)[nH]c1=O | > 100 | > 100 | 58.8 | > 100 | > 100 | > 100 | > 100 | > 100 | > 100
14 | Cc1cc(N(CCC#N)CCC#N)ccc1N=Nc1cccc(Cl)c1 | > 100 | > 100 |  |  | > 100 | > 100 |  | > 100 | 
15 | Cc1nc(Nc2ccccc2)sc1C(=O)NNc1ccc([N+](=O)[O-])cc1[N+](=O)[O-] | > 100 | > 100 | 55.3 |  | > 100 | 65.8 | > 100 | > 100 | > 100
16 | CCc1cccc(CC)c1NC(=O)C1=C(C)NC(C)=C(C(=O)Nc2c(CC)cccc2CC)C1c1ccc2c(c1)OCO2 | 52.3 | 30.9 |  |  | 26 |  | 61.2 | 30.5 | 29.3
17 | CCN(CC)Cc1cc(Nc2c3ccccc3nc3c4ccccc4n(C)c23)ccc1O | 41.2 | 19 | 17.1 | 13.8 | 17.9 | 19.5 | 27.1 | 17.3 | 14.7
18 | CC(=O)NC(CCCNC(=O)NCCCl)C(=O)NCc1ccccc1 (stereo unspecified) |  | > 100 |  | > 100 | > 100 | > 100 | > 100 | > 100 | > 100
19 | CC1C=C[C@H](Sc2ccccc2)CC[C@@]1(C)O (stereo partly specified) | > 100 | > 100 |  |  |  | > 100 |  | > 100 | > 100
20 | O=S(=O)(O)c1cc(N=Nc2cc(S(=O)(=O)O)c3cccnc3c2O)ccc1/C=C/c1ccc(N=Nc2cc(S(=O)(=O)O)c3cccnc3c2O)cc1S(=O)(=O)O | > 100 | > 100 | > 100 | > 100 | > 100 | > 100 | > 100 | > 100 | > 100
21 | COc1ccc(N2C(=O)[C@@H]3[C@H](C2=O)c2[nH]c4ccccc4c2C2CCC(C(C)(C)C)C[C@@H]23)cc1 (stereo partly specified) | 59.5 | > 100 | > 100 |  | > 77.9 |  |  | > 100 | > 100
22 | CCc1cccc(C(C)CC)c1NC(=O)C(=O)C(CC(=O)Nc1ccc(Cl)c(Cl)c1)C(=O)OC (stereo unspecified) | > 100 | > 100 |  |  | 55.9 | > 100 |  | > 100 | > 100
23 | CC(C)(Oc1ccc2c(=O)cc(-c3ccccc3)oc2c1)C(=O)Nc1c(Cl)cccc1Cl | > 100 | > 100 | 72.2 |  | > 100 | > 100 | > 100 | > 100 | > 100
24 | COC(=O)c1ccccc1NC(=O)C(=O)CC(=O)CC(c1ccccc1)c1c(O)c2ccccc2oc1=O (stereo unspecified) |  | > 100 |  | > 100 |  | > 100 |  | > 100 | 
25 | COC(=O)C1N=CSCC1(C)O (stereo unspecified) | > 100 | > 100 | > 100 |  |  | > 100 | > 100 | > 100 | 
26 | CCCCCCCCCCCC(=O)c1c(O)cccc1O | 43.9 | 34.5 | 32.4 | 35.5 | 34 | 34 | 31 | 48.5 | 32.6

Source: PubChem BioAssay (NCI)
